Experimental data as given in the NIST ThermoML archive (doi:10.1016/j.jct.2018.08.035).

Experiment: xn = mol fraction of the nth substance listed
Conditions: 100 kPa, Liquid, Vibrating tube method

CCC(O)CC [3-pentanol] + C[N+](=O)[O-]
Conditions	mass density [kg/m3]
290.86 K, x1 = 0.414	977.244
290.86 K, x1 = 0.615	890.972
290.95 K, x1 = 0.246	1006.81
290.95 K, x1 = 0.266	998.292
290.95 K, x1 = 0.275	994.793
290.95 K, x1 = 0.3	988.13
290.95 K, x1 = 0.325	987.695
290.95 K, x1 = 0.338	986.437
290.95 K, x1 = 0.363	982.374
290.95 K, x1 = 0.382	980.189
290.95 K, x1 = 0.407	976.76
290.95 K, x1 = 0.414	976.042
290.95 K, x1 = 0.486	956.644
290.95 K, x1 = 0.488	952.742
290.95 K, x1 = 0.546	927.124
290.95 K, x1 = 0.573	908.776
290.95 K, x1 = 0.587	897.749
290.95 K, x1 = 0.615	890.865
291.05 K, x1 = 0.246	1006.69
291.05 K, x1 = 0.275	994.663
291.05 K, x1 = 0.382	978.765
291.05 K, x1 = 0.407	975.346
291.05 K, x1 = 0.414	974.647
291.05 K, x1 = 0.486	954.019
291.05 K, x1 = 0.488	945.483
291.05 K, x1 = 0.573	903.111
291.06 K, x1 = 0.266	998.167
291.06 K, x1 = 0.3	986.306
291.06 K, x1 = 0.325	985.699
291.06 K, x1 = 0.338	984.897
291.06 K, x1 = 0.363	981.518
291.06 K, x1 = 0.546	924.902
291.06 K, x1 = 0.587	897.593
291.06 K, x1 = 0.615	890.758
291.15 K, x1 = 0.246	1006.56
291.15 K, x1 = 0.266	998.042
291.15 K, x1 = 0.275	994.538
291.15 K, x1 = 0.3	985.201
291.15 K, x1 = 0.325	983.513
291.15 K, x1 = 0.338	982.822
291.15 K, x1 = 0.382	977.024
291.15 K, x1 = 0.407	973.664
291.15 K, x1 = 0.414	973.001
291.15 K, x1 = 0.486	951.113
291.15 K, x1 = 0.488	947.64
291.15 K, x1 = 0.573	901.117
291.15 K, x1 = 0.615	890.652
291.15 K, x1 = 0.629	887.189
291.16 K, x1 = 0.363	980.295
291.16 K, x1 = 0.546	921.069
291.16 K, x1 = 0.587	897.497
291.25 K, x1 = 0.246	1006.44
291.25 K, x1 = 0.266	997.918
291.25 K, x1 = 0.275	994.413
291.25 K, x1 = 0.3	985.014
291.25 K, x1 = 0.325	980.203
291.25 K, x1 = 0.338	980.22
291.25 K, x1 = 0.382	974.837
291.25 K, x1 = 0.407	971.578
291.25 K, x1 = 0.414	970.955
291.25 K, x1 = 0.486	947.303
291.25 K, x1 = 0.488	944.104
291.25 K, x1 = 0.573	901.031
291.25 K, x1 = 0.587	897.388
291.25 K, x1 = 0.615	890.547
291.26 K, x1 = 0.363	978.023
291.26 K, x1 = 0.546	917.045
291.35 K, x1 = 0.246	1006.32
291.35 K, x1 = 0.275	994.289
291.35 K, x1 = 0.382	972.169
291.35 K, x1 = 0.407	969.156
291.35 K, x1 = 0.414	968.504
291.35 K, x1 = 0.486	943.014
291.35 K, x1 = 0.488	939.641
291.35 K, x1 = 0.573	900.922
291.36 K, x1 = 0.266	997.796
291.36 K, x1 = 0.3	984.888
291.36 K, x1 = 0.325	976.768
291.36 K, x1 = 0.338	976.695
291.36 K, x1 = 0.363	976.137
291.36 K, x1 = 0.546	910.024
291.36 K, x1 = 0.587	897.278
291.36 K, x1 = 0.615	890.441
291.45 K, x1 = 0.246	1006.19
291.45 K, x1 = 0.275	994.165
291.45 K, x1 = 0.338	972.479
291.45 K, x1 = 0.382	968.647
291.45 K, x1 = 0.407	965.925
291.45 K, x1 = 0.414	965.499
291.45 K, x1 = 0.486	938.691
291.45 K, x1 = 0.488	935.781
291.45 K, x1 = 0.546	907.652
291.45 K, x1 = 0.573	900.812
291.45 K, x1 = 0.587	897.17
291.45 K, x1 = 0.615	890.332
291.46 K, x1 = 0.266	997.671
291.46 K, x1 = 0.3	984.765
291.46 K, x1 = 0.325	975.497
291.46 K, x1 = 0.363	971.707
291.55 K, x1 = 0.246	1006.07
291.55 K, x1 = 0.275	994.042
291.55 K, x1 = 0.382	965.717
291.55 K, x1 = 0.407	961.145
291.55 K, x1 = 0.414	961.374
291.55 K, x1 = 0.486	933.844
291.55 K, x1 = 0.488	932.33
291.55 K, x1 = 0.573	900.7
291.56 K, x1 = 0.266	997.549
291.56 K, x1 = 0.3	984.639
291.56 K, x1 = 0.325	975.358
291.56 K, x1 = 0.338	970.561
291.56 K, x1 = 0.363	967.75
291.56 K, x1 = 0.546	907.531
291.56 K, x1 = 0.587	897.059
291.56 K, x1 = 0.615	890.227
291.65 K, x1 = 0.246	1005.95
291.65 K, x1 = 0.266	997.425
291.65 K, x1 = 0.275	993.918
291.65 K, x1 = 0.325	975.23
291.65 K, x1 = 0.338	970.427
291.65 K, x1 = 0.363	961.876
291.65 K, x1 = 0.382	955.241
291.65 K, x1 = 0.407	957.953
291.65 K, x1 = 0.414	956.971
291.65 K, x1 = 0.486	923.683
291.65 K, x1 = 0.488	922.941
291.65 K, x1 = 0.546	907.417
291.65 K, x1 = 0.573	900.591
291.65 K, x1 = 0.615	890.121
291.66 K, x1 = 0.3	984.514
291.66 K, x1 = 0.587	896.95
291.75 K, x1 = 0.246	1005.83
291.75 K, x1 = 0.266	997.302
291.75 K, x1 = 0.275	993.795
291.75 K, x1 = 0.3	984.391
291.75 K, x1 = 0.325	975.108
291.75 K, x1 = 0.338	970.303
291.75 K, x1 = 0.363	961.743
291.75 K, x1 = 0.382	955.25
291.75 K, x1 = 0.414	944.629
291.75 K, x1 = 0.486	923.534
291.75 K, x1 = 0.488	922.803
291.75 K, x1 = 0.546	907.305
291.75 K, x1 = 0.573	900.482
291.75 K, x1 = 0.615	890.018
291.76 K, x1 = 0.407	947.126
291.76 K, x1 = 0.587	896.844
291.85 K, x1 = 0.246	1005.7
291.85 K, x1 = 0.275	993.671
291.85 K, x1 = 0.3	984.268
291.85 K, x1 = 0.338	970.173
291.85 K, x1 = 0.382	955.119
291.85 K, x1 = 0.414	944.718
291.85 K, x1 = 0.486	923.411
291.85 K, x1 = 0.573	900.371
291.85 K, x1 = 0.615	889.909
291.86 K, x1 = 0.266	997.179
